Results taken from patent publication US11760754B2, “Heterocyclic mitochondrial activity inhibitors and uses thereof” (UNIVERSITÉ DE MONTRÉAL, priority 2017, dated 2023).

Experiments:
[1] = test system: OCI-AML3 cells; experiment: OCI-AML3 cell growth inhibition, dose-response viability assay (CellTiterGlo); format: cell-based; conditions: Homo sapiens, OCI-AML-3, 144 h, read-out: AML-3 EC50
How it was run: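 OCI-AML3 cells seeded, then exposed to compound in serial dilutions from 10 μM to 0.5 nM, in duplicate or quadruplicate. Viability read by CellTiter-Glo.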

[2] = test system: MLL-AF9 cells; experiment: MLL-AF9 leukemia cell growth inhibition, dose-response viability assay (CellTiterGlo); format: cell-based, murine; conditions: Mus musculus, MLL-AF9, 120 h, read-out: MLL-AF9 EC50
How it was run: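 Murine MLL-AF9 leukemia cells (female, MSCV MLL-AF9 IRES Puro transduced) were treated with serial compound dilutions from 10 μM to 0.5 nM in duplicates or quadruplicates. Viability read by CellTiterGlo dose-response.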

EC50 [1] [nM]	EC50 [2] [nM]	SMILES
< 50	< 50	N#Cc1ccc(/C=C/c2nc(COc3ccc(CCCCn4ccnn4)cc3)co2)c(F)c1 [Compound 122, (E)-4-(2-(4-((4-(4-(1H-1,2,3-triazol-1-yl)butyl)phenoxy)methyl)oxazol-2-yl)vinyl)-3-fluorobenzonitrile]
100 to 500	100 to 500	CS(=O)(=O)c1ccc(/C=C/c2nc(COc3ccc(CCCCn4ccnn4)cc3)co2)c(F)c1 [Compound 123, (E)-4-((4-(4-(1H-1,2,3-triazol-1-yl)butyl)phenoxy)methyl)-2-(2-fluoro-4-(methylsulfonyl)styryl)oxazole]
< 50	50 to 100	Fc1cc(OC(F)(F)F)ccc1/C=C/c1nc(COc2ccc(CCCCn3ccnn3)cc2)co1 [Compound 124, (E)-4-((4-(4-(1H-1,2,3-triazol-1-yl)butyl)phenoxy)methyl)-2-(2-fluoro-4-(trifluoromethoxy)styryl)oxazole]
50 to 100	100 to 500	COC(=O)c1ccc(/C=C/c2nc(COc3ccc(CCCCn4ccnn4)cc3)co2)c(F)c1 [Compound 125, methyl (E)-4-(2-(4-((4-(4-(1H-1,2,3-triazol-1-yl)butyl)phenoxy)methyl)oxazol-2-yl)vinyl)-3-fluorobenzoate]
1000 to 10000	> 10000	O=[N+]([O-])c1cc(F)cc2cc(-c3nc(COc4ccc(CCCCn5ccnn5)cc4)co3)[nH]c12 [Compound 126, 4-((4-(4-(1H-1,2,3-triazol-1-yl)butyl)phenoxy)methyl)-2-(5-fluoro-7-nitro-1H-indol-2-yl)oxazole]
< 50	< 50	Fc1ccc2cc(-c3nc(COc4ccc(CCCCn5ccnn5)cc4)co3)[nH]c2c1 [Compound 127, 4-((4-(4-(H-1,2,3-triazol-1-yl)butyl)phenoxy)methyl)-2-(6-fluoro-1H-indol-2-yl)oxazole]
< 50	< 50	Fc1cc(F)c2cc(-c3nc(COc4ccc(CCCCn5ccnn5)cc4)co3)[nH]c2c1 [Compound 128, 4-((4-(4-(1H-1,2,3-triazol-1-yl)butyl)phenoxy)methyl)-2-(4,6-difluoro-1H-indol-2-yl)oxazole]
< 50	< 50	O=[N+]([O-])c1ccc2cc(-c3nc(COc4ccc(CCCCn5ccnn5)cc4)co3)[nH]c2c1 [Compound 129, 4-((4-(4-(1H-1,2,3-triazol-1-yl)butyl)phenoxy)methyl)-2-(6-nitro-1H-indol-2-yl)oxazole]
< 50	< 50	Fc1cc(C(F)(F)F)ccc1/C=C/c1nc(COc2ccc(SCCCn3ccnn3)cc2)co1 [Compound 130, (E)-4-((4-((3-(1H-1,2,3-triazol-1-yl)propyl)thio)phenoxy)methyl)-2-(2-fluoro-4-(trifluoromethyl)styryl)oxazole]
100 to 500	100 to 500	Fc1cc(C(F)(F)F)ccc1/C=C/c1nc(COc2ccc(CCCCn3ccnn3)cc2)cs1 [Compound 131, (E)-4-((4-(4-(1H-1,2,3-triazol-1-yl)butyl)phenoxy)methyl)-2-(2-fluoro-4-(trifluoromethyl)styryl)thiazole]
1000 to 10000	500 to 1000	Fc1cc(C(F)(F)F)ccc1/C=C/c1nc(CSc2ccc(CCCn3ccnn3)cc2)co1 [Compound 132, (E)-4-(((4-(3-(1H-1,2,3-triazol-1-yl)propyl)phenyl)thio)methyl)-2-(2-fluoro-4-(trifluoromethyl)styryl)oxazole]
100 to 500	50 to 100	Fc1cc(C(F)(F)F)ccc1/C=C/c1nc(COc2ccc(CCCCn3ccnn3)nc2)co1 [Compound 133, (E)-4-(((6-(4-(1H-1,2,3-triazol-1-yl)butyl)pyridin-3-yl)oxy)methyl)-2-(2-fluoro-4-(trifluoromethyl)styryl)oxazole]
1000 to 10000	500 to 1000	Fc1cc(C(F)(F)F)ccc1/C=C/c1nc(Cc2ccc(CCCCn3ccnn3)cc2)co1 [Compound 134, (E)-4-(4-(4-(1H-1,2,3-triazol-1-yl)butyl)benzyl)-2-(2-fluoro-4-(trifluoromethyl)styryl)oxazole]
